Measured values as given in PubChem BioAssay AID248 (DTP/NCI, 2004).
Where “and” joins values, the source holds several entries; their conditions need not be identical. Identical values can stand only once. Toxic doses and inconclusive results are not listed.

Tested on: L1210 leukemia ip in BDF1 mice, survival T/C
Assay: NCI In Vivo Anticancer Drug Screen. Data for tumor model L1210 Leukemia (intraperitoneal) in B6D2F1 (BDF1) mice
Details: endpoint: mean survival time, higher = longer survival
Method in brief: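 Antitumor effect is assessed in tumor-bearing animals. Survival in the compound arm is compared with a vehicle-dosed control arm and expressed as their quotient.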

[1] = dose: 100.0 mg/kg/injection, schedule: Q04DX003 (ip), vehicle: saline with Tween-80
[2] = dose: 200.0 mg/kg/injection, schedule: Q04DX003 (ip), vehicle: saline with Tween-80
[3] = dose: 400.0 mg/kg/injection, schedule: Q04DX003 (ip), vehicle: saline with Tween-80
[4] = dose: 100.0 mg/kg/injection, schedule: Q01DX009 (ip), vehicle: saline with Tween-80
[5] = dose: 200.0 mg/kg/injection, schedule: Q01DX009 (ip), vehicle: saline with Tween-80
[6] = dose: 100.0 mg/kg/injection, schedule: Q01DX001 (ip), vehicle: other
[7] = dose: 100.0 mg/kg/injection, schedule: Q01DX009 (ip), vehicle: Klucel (hydroxypropylcellulose) (HPC)
[8] = dose: 200.0 mg/kg/injection, schedule: Q01DX009 (ip), vehicle: Klucel (hydroxypropylcellulose) (HPC)

With CCCC(NC(=O)C(C)NC(=O)OCc1ccccc1)C(=O)OC (centres undefined) the T/C [1] was 93 % of control, the T/C [2] was 93 % of control and the T/C [3] was 86 % of control.
Cc1[nH]c2ccccc2c1C(=O)Cc1ccc(Cl)cc1Cl was tested, and the T/C (dose: 50.0 mg/kg/injection, schedule: Q01DX001 (ip), vehicle: saline) was 98 % of control, the T/C (dose: 100.0 mg/kg/injection, schedule: Q01DX001 (ip), vehicle: saline) was 101 % of control and the T/C (dose: 200.0 mg/kg/injection, schedule: Q01DX001 (ip), vehicle: saline) was 101 % of control. The T/C (dose: 400.0 mg/kg/injection, schedule: Q01DX001 (ip), vehicle: saline) was 95 % of control.
With O=C(Nc1ccccc1C(F)(F)F)Oc1ccc(Cl)cc1Cl the T/C [4] was 103 % of control, the T/C [1] was 94 % of control and the T/C [5] was 99 % of control. The T/C [2] was 102 % of control and the T/C [3] was 86 % of control.
CC(=O)Nc1nc(=O)n(CC(=O)c2cccs2)cc1F was tested, and the T/C [4] was 98 % of control, the T/C [1] was 102 % of control and the T/C [5] was 98 % of control. For the same compound, the T/C [2] was 97 % of control and the T/C [3] was 101 % of control.
O=P(Oc1ccccc1)(N1CCCCC1)N1CCCCC1 was tested, and the T/C (dose: 25.0 mg/kg/injection, schedule: Q01DX001 (ip), vehicle: other) was 96 % of control, the T/C (dose: 25.0 mg/kg/injection, schedule: Q01DX009 (ip), vehicle: carboxymethylcellulose (CMC)) was 97 % of control and 101 % of control and the T/C (dose: 25.0 mg/kg/injection, schedule: Q04DX003 (ip), vehicle: other) was 97 % of control. For the same compound, the T/C (dose: 50.0 mg/kg/injection, schedule: Q01DX001 (ip), vehicle: other) was 91 % of control, the T/C (dose: 50.0 mg/kg/injection, schedule: Q04DX003 (ip), vehicle: other) was 108 % of control and the T/C [6] was 106 % of control. The T/C (dose: 100.0 mg/kg/injection, schedule: Q04DX002 (ip), vehicle: carboxymethylcellulose (CMC)) was 95 % of control and 100 % of control, the T/C (dose: 100.0 mg/kg/injection, schedule: Q04DX003 (ip), vehicle: other) was 93 % of control and the T/C (dose: 200.0 mg/kg/injection, schedule: Q04DX002 (ip), vehicle: carboxymethylcellulose (CMC)) was 104 % of control and 106 % of control. The T/C (dose: 200.0 mg/kg/injection, schedule: Q04DX003 (ip), vehicle: carboxymethylcellulose (CMC)) was 92 % of control.
In the case of CC(=O)OC1CCC2(C)C(CCC3C2CC(OC(C)=O)C2(C)C3CCC2C2(C)SCCS2)C1 (centres undefined), the T/C (dose: 100.0 mg/kg/injection, schedule: Q04DX002 (ip), vehicle: Klucel (hydroxypropylcellulose) (HPC)) is reported as 94 % of control and the T/C (dose: 400.0 mg/kg/injection, schedule: Q04DX002 (ip), vehicle: Klucel (hydroxypropylcellulose) (HPC)) is reported as 87 % of control.
With CC1OC(=O)N(CCc2ccncc2)C1=O (centres undefined) the T/C (dose: 100.0 mg/kg/injection, schedule: Q04DX002 (ip), vehicle: saline) was 93 % of control, the T/C (dose: 200.0 mg/kg/injection, schedule: Q04DX002 (ip), vehicle: saline) was 93 % of control and the T/C (dose: 400.0 mg/kg/injection, schedule: Q04DX002 (ip), vehicle: saline) was 97 % of control.
O=c1[nH]cnc2nc(-c3ccc(Cl)cc3)c(-c3ccc(Cl)cc3)nc12 was tested, and the T/C (dose: 50.0 mg/kg/injection, schedule: Q01DX009 (ip), vehicle: Klucel (hydroxypropylcellulose) (HPC)) was 92 % of control, the T/C [7] was 103 % of control and the T/C [8] was 92 % of control.
For O=C(Nc1cccc(C2=NCCN2)c1)Nc1cccc(C2=NCCN2)c1, the T/C (dose: 6.0 mg/kg/injection, schedule: Q01DX Z (ip), vehicle: water) was 104 % of control, the T/C (dose: 12.0 mg/kg/injection, schedule: Q01DX Z (ip), vehicle: water) was 101 % of control and the T/C (dose: 25.0 mg/kg/injection, schedule: Q01DX Z (ip), vehicle: water) was 97 % of control.
In the case of NC(CSCc1cc(=O)[nH]c(=O)[nH]1)C(=O)O (centres undefined), the T/C (dose: 100.0 mg/kg/injection, schedule: Q04DX003 (ip), vehicle: saline) is reported as 97 % of control, the T/C (dose: 200.0 mg/kg/injection, schedule: Q04DX003 (ip), vehicle: saline) is reported as 97 % of control and the T/C (dose: 400.0 mg/kg/injection, schedule: Q04DX003 (ip), vehicle: saline) is reported as 95 % of control.
In the case of Oc1ccccc1C=Nc1ccccc1S.[Co], the T/C [6] is reported as 105 % of control, the T/C (dose: 200.0 mg/kg/injection, schedule: Q01DX001 (ip), vehicle: other) is reported as 100 % of control and the T/C (dose: 400.0 mg/kg/injection, schedule: Q01DX001 (ip), vehicle: other) is reported as 105 % of control.
With CCCCN(C)/N=N/c1[nH]ncc1C(=O)OC the T/C (dose: 268.0 mg/kg/injection, schedule: Q01DX007 (ip), vehicle: other) was 150 % of control and the T/C (dose: 600.0 mg/kg/injection, schedule: Q01DX007 (ip), vehicle: other) was 88 % of control.
With OCC1(c2ccccc2)CCN(Cc2ccccc2)CC1 the T/C [7] was 91 % of control, the T/C (dose: 100.0 mg/kg/injection, schedule: Q04DX003 (ip), vehicle: Klucel (hydroxypropylcellulose) (HPC)) was 104 % of control and the T/C [8] was 96 % of control. The T/C (dose: 200.0 mg/kg/injection, schedule: Q04DX003 (ip), vehicle: Klucel (hydroxypropylcellulose) (HPC)) was 101 % of control, the T/C (dose: 400.0 mg/kg/injection, schedule: Q01DX009 (ip), vehicle: Klucel (hydroxypropylcellulose) (HPC)) was 91 % of control and the T/C (dose: 400.0 mg/kg/injection, schedule: Q04DX003 (ip), vehicle: Klucel (hydroxypropylcellulose) (HPC)) was 97 % of control.
For COC(=O)c1ccc[n+](CC(=O)c2ccccc2)c1, the T/C [1] was 95 % of control and the T/C [2] was 88 % of control.
